Laboratory results from the NIST ThermoML archive (doi:10.1016/j.jct.2014.03.029).
Numbers after ± are expanded uncertainties.

Experiments:
[1] = Molar enthalpy of transition or fusion; settings: Crystal; DSC
[2] = molar heat capacity at constant pressure; settings: 100 kPa, Liquid, Small sample (50 mg) DSC
[3] = Crystal; DTA
[4] = molar heat capacity at constant pressure; xn = mol fraction of the nth substance listed; settings: 100 kPa, Liquid, Small sample (50 mg) DSC

c1ccc(-c2ccccc2)cc1 [biphenyl]
Settings | Molar enthalpy of transition or fusion [kcal/mol] | Normal melting temperature [°C]
[1] | 4.43 ± 0.129 | –
[3] | – | 69.0 ± 0.7

[2]
Settings | molar heat capacity at constant pressure [J/K/mol]
353.15 K | 271.56 ± 17
373.15 K | 280.81 ± 17

c1ccc(-c2ccccc2)cc1 [biphenyl] + c1ccc(Oc2ccccc2)cc1
[4], x2 = 0
Settings | molar heat capacity at constant pressure [J/K/mol]
353.15 K | 271.56 ± 17
373.15 K | 280.81 ± 17

c1ccc(Oc2ccccc2)cc1 [diphenyl ether]
Settings | Molar enthalpy of transition or fusion [kcal/mol] | Normal melting temperature [°C]
[1] | 4.07 ± 0.131 | –
[3] | – | 26.98 ± 0.7

[2]
Settings | molar heat capacity at constant pressure [J/K/mol]
313.15 K | 261.61 ± 16
333.15 K | 272.33 ± 17
353.15 K | 281.69 ± 17
373.15 K | 290.88 ± 18

c1ccc(Oc2ccccc2)cc1 [diphenyl ether] + c1ccc(-c2ccccc2)cc1
molar heat capacity at constant pressure [J/K/mol], [4]
Settings | x1 = 0.05 | x1 = 0.15 | x1 = 0.2499 | x1 = 0.4 | x1 = 0.55 | x1 = 0.705 | x1 = 0.85 | x1 = 0.95 | x1 = 1
293.15 K | – | – | – | – | – | 263.62 ± 16 | – | – | –
313.15 K | – | – | – | – | 271.57 ± 17 | 271.4 ± 17 | 267.65 ± 16 | 262.24 ± 16 | 261.61 ± 16
333.15 K | – | – | 270.37 ± 17 | 273.51 ± 17 | 278.25 ± 17 | 279.18 ± 17 | 276.55 ± 17 | 272.24 ± 17 | 272.33 ± 17
353.15 K | 272.81 ± 17 | 277.2 ± 17 | 279.39 ± 17 | 282.35 ± 17 | 285.59 ± 18 | 286.13 ± 18 | 285.61 ± 18 | 281.72 ± 17 | 281.69 ± 17
373.15 K | 282.42 ± 17 | 285.5 ± 18 | 286.99 ± 18 | 290.38 ± 18 | 292.44 ± 18 | 293.24 ± 18 | 294.5 ± 18 | 290.87 ± 18 | 290.88 ± 18
